Assay results from ChEMBL document CHEMBL3856229, “Hybrid Antibiotic Overcomes Resistance in P. aeruginosa by Enhancing Outer Membrane Penetration and Reducing Efflux” (J Med Chem, 2016).
Values after ≈ are worked out from the molar mass of the structure shown.

Columns and labels:
Assay type in all cases: functional
[1] = tested on: Pseudomonas aeruginosa; assay: Antibacterial activity against multidrug/extremely drug-resistant/colistin-susceptible Pseudomonas aeruginosa isolate 259-96918
[2] = tested on: Enterococcus faecium; assay: Antibacterial activity against Enterococcus faecium ATCC 27270 after 24 hrs by microtitre broth dilution method; details: ATCC 27270, 24 h
[3] = tested on: Pseudomonas aeruginosa; assay: Antibacterial activity against multidrug-resistant/tobramycin-susceptible Pseudomonas aeruginosa isolate 86053
[4] = tested on: Pseudomonas aeruginosa; assay: Antibacterial activity against multidrug/extremely drug-resistant/colistin-susceptible Pseudomonas aeruginosa isolate 100036
[5] = tested on: Escherichia coli; assay: Antibacterial activity against amikacin-resistant Escherichia coli isolate CAN-ICU 63074 after 24 hrs by microtitre broth dilution method; details: isolate CAN-ICU 63074, 24 h
[6] = tested on: Pseudomonas aeruginosa; assay: Antibacterial activity against multidrug/extremely drug-resistant/colistin-susceptible Pseudomonas aeruginosa isolate 260-97103
[7] = tested on: Pseudomonas aeruginosa; assay: Antibacterial activity against Pseudomonas aeruginosa ATCC 27853 after 24 hrs by microtitre broth dilution method; details: ATCC 27853, 24 h
[8] = tested on: Pseudomonas aeruginosa; assay: Antibacterial activity against multidrug-resistant/tobramycin-susceptible Pseudomonas aeruginosa isolate 86079
[9] = tested on: Pseudomonas aeruginosa; assay: Antibacterial activity against multidrug-resistant/tobramycin-susceptible Pseudomonas aeruginosa isolate 86052
[10] = tested on: Escherichia coli; assay: Antibacterial activity against Escherichia coli ATCC 25922 after 24 hrs by microtitre broth dilution method; details: ATCC 25922, 24 h
[11] = tested on: Klebsiella pneumoniae; assay: Antibacterial activity against Klebsiella pneumoniae ATCC 13883 after 24 hrs by microtitre broth dilution method; details: ATCC 13883, 24 h
[12] = tested on: Enterococcus faecalis; assay: Antibacterial activity against Enterococcus faecalis ATCC 29212 after 24 hrs by microtitre broth dilution method; details: ATCC 29212, 24 h
[13] = tested on: Pseudomonas aeruginosa; assay: Antibacterial activity against multidrug/extremely drug-resistant/colistin-susceptible Pseudomonas aeruginosa isolate 101885
[14] = tested on: Pseudomonas aeruginosa; assay: Antibacterial activity against multidrug/extremely drug-resistant/colistin-susceptible Pseudomonas aeruginosa isolate 264-104354
[15] = tested on: Acinetobacter baumannii; assay: Antibacterial activity against Acinetobacter baumannii isolate CAN-ICU 63169 after 24 hrs by microtitre broth dilution method; details: isolate CAN-ICU 63169, 24 h
[16] = tested on: Pseudomonas aeruginosa; assay: Antibacterial activity against multidrug-resistant/tobramycin-susceptible Pseudomonas aeruginosa isolate 83182
[17] = tested on: Streptococcus pneumoniae; assay: Antibacterial activity against Streptococcus pneumoniae ATCC 49619 after 24 hrs by microtitre broth dilution method; details: ATCC 49619, 24 h
[18] = tested on: Pseudomonas aeruginosa; assay: Antibacterial activity against gentamicin/tobramycin-resistant Pseudomonas aeruginosa isolate CANWARD-2011 96846 after 24 hrs by microtitre broth dilution method; details: isolate CANWARD-2011 96846, 24 h
[19] = tested on: Staphylococcus epidermidis; assay: Antibacterial activity against methicillin-susceptible Staphylococcus epidermidis isolate CANWARD-2008 81388 after 24 hrs by microtitre broth dilution method; details: isolate CANWARD-2008 81388, 24 h
[20] = tested on: Pseudomonas aeruginosa; assay: Antibacterial activity against multidrug-resistant/tobramycin-susceptible Pseudomonas aeruginosa isolate 86067
[21] = tested on: Pseudomonas aeruginosa; assay: Antibacterial activity against multidrug/extremely drug-resistant/colistin-susceptible Pseudomonas aeruginosa isolate 262-101856
[22] = tested on: Pseudomonas aeruginosa; assay: Antibacterial activity against pandrug-resistant Pseudomonas aeruginosa isolate 91433
[23] = tested on: Staphylococcus aureus; assay: Antibacterial activity against Staphylococcus aureus ATCC 29213 after 24 hrs by microtitre broth dilution method; details: ATCC 29213, 24 h
[24] = tested on: Pseudomonas aeruginosa; assay: Antibacterial activity against Pseudomonas aeruginosa PAO1
[25] = tested on: Stenotrophomonas maltophilia; assay: Antibacterial activity against Stenotrophomonas maltophilia isolate CAN-ICU 62584 after 24 hrs by microtitre broth dilution method; details: isolate CAN-ICU 62584, 24 h
[26] = tested on: Staphylococcus epidermidis; assay: Antibacterial activity against methicillin-resistant Staphylococcus epidermidis isolate CAN-ICU 61589 after 24 hrs by microtitre broth dilution method; details: isolate CAN-ICU 61589, 24 h
[27] = tested on: Escherichia coli; assay: Antibacterial activity against gentamicin/tobramycin/ciprofloxacin-resistant Escherichia coli isolate CANWARD-2011 97615 harboring AAC3-2A after 24 hrs by microtitre broth dilution method; details: isolate CANWARD-2011 97615, 24 h
[28] = tested on: Escherichia coli; assay: Antibacterial activity against gentamicin-resistant Escherichia coli isolate CAN-ICU 61714 after 24 hrs by microtitre broth dilution method; details: isolate CAN-ICU 61714, 24 h
[29] = tested on: Staphylococcus aureus; assay: Antibacterial activity against methicillin-resistant Staphylococcus aureus ATCC 33592 after 24 hrs by microtitre broth dilution method; details: ATCC 33592, 24 h
[30] = tested on: Pseudomonas aeruginosa; assay: Antibacterial activity against pandrug-resistant Pseudomonas aeruginosa isolate 101243
[31] = tested on: Pseudomonas aeruginosa; assay: Antibacterial activity against multidrug-resistant/tobramycin-susceptible Pseudomonas aeruginosa isolate 86141
[32] = tested on: Pseudomonas aeruginosa; assay: Antibacterial activity against multidrug-resistant/tobramycin-susceptible Pseudomonas aeruginosa isolate 92014
[33] = tested on: Pseudomonas aeruginosa; assay: Antibacterial activity against multidrug-resistant/tobramycin-susceptible Pseudomonas aeruginosa isolate 108590
[34] = tested on: Pseudomonas aeruginosa; assay: Antibacterial activity against multidrug-resistant/tobramycin-susceptible Pseudomonas aeruginosa isolate 85322
[35] = tested on: Pseudomonas aeruginosa; assay: Antibacterial activity against multidrug-resistant/tobramycin-susceptible Pseudomonas aeruginosa isolate 80621
[36] = tested on: Pseudomonas aeruginosa; assay: Antibacterial activity against multidrug-resistant/tobramycin-susceptible Pseudomonas aeruginosa isolate 84745
[37] = tested on: Pseudomonas aeruginosa; assay: Antibacterial activity against multidrug-resistant/tobramycin-susceptible Pseudomonas aeruginosa isolate 79199
[38] = tested on: Pseudomonas aeruginosa; assay: Induction of cytoplasmic membrane depolarization in Pseudomonas aeruginosa PAO1 by DiSC3(5) dye based fluorescence assay

## O=C(O)c1cn(C2CC2)c2cc(N3CCNCC3)c(F)cc2c1=O [CIPROFLOXACIN]
[1]
  MIC: 256 µg/mL (≈ 773 µM)
[2]
  MIC: 8 µg/mL (≈ 24.1 µM)
[3]
  MIC: > 16 µg/mL
[4]
  MIC: 64 µg/mL (≈ 193 µM)
[5]
  MIC: ≤ 0.25 µg/mL
[6]
  MIC: 16 to 64 µg/mL (≈ 48.3 to 193 µM)
[7]
  MIC: 1 µg/mL (≈ 3.02 µM)
[8]
  MIC: > 16 µg/mL
[9]
  MIC: > 16 µg/mL
[10]
  MIC: ≤ 0.25 µg/mL
[11]
  MIC: ≤ 0.25 µg/mL
[12]
  MIC: 1 µg/mL (≈ 3.02 µM)
[13]
  MIC: 32 µg/mL (≈ 96.6 µM)
[14]
  MIC: 16 to 32 µg/mL (≈ 48.3 to 96.6 µM)
[15]
  MIC: 2 µg/mL (≈ 6.04 µM)
[16]
  MIC: 4 µg/mL (≈ 12.1 µM)
[17]
  MIC: 1 µg/mL (≈ 3.02 µM)
[18]
  MIC: 4 µg/mL (≈ 12.1 µM)
[19]
  MIC: ≤ 0.25 µg/mL
[20]
  MIC: 4 µg/mL (≈ 12.1 µM)
[21]
  MIC: 16 to 32 µg/mL (≈ 48.3 to 96.6 µM)
[22]
  MIC: 4 to 8 µg/mL (≈ 12.1 to 24.1 µM)
[23]
  MIC: ≤ 0.25 µg/mL
[24]
  MIC: < 0.2 µg/mL
[25]
  MIC: 32 µg/mL (≈ 96.6 µM)
[26]
  MIC: 128 µg/mL (≈ 386 µM)
[27]
  MIC: 256 µg/mL (≈ 773 µM)
[28]
  MIC: ≤ 0.25 µg/mL
[29]
  MIC: ≤ 0.25 µg/mL

## C[C@@H](O)[C@H]1C(=O)N2C(C(=O)O)=C(S[C@@H]3CN[C@H](CNS(N)(=O)=O)C3)[C@H](C)[C@H]12 [DORIPENEM]
[1]
  MIC: > 32 µg/mL
[4]
  MIC: 5 µg/mL (≈ 11.9 µM)
[6]
  MIC: 32 µg/mL (≈ 76.1 µM)
[30]
  MIC: 16 µg/mL (≈ 38 µM)
[13]
  MIC: 0.5 µg/mL (≈ 1.19 µM)
[14]
  MIC: 16 µg/mL (≈ 38 µM)
[21]
  MIC: 8 µg/mL (≈ 19 µM)
[22]
  MIC: 8 µg/mL (≈ 19 µM)

## C[C@H]1c2cccc(O)c2C(=O)C2=C(O)[C@]3(O)C(=O)C(C(N)=O)=C(O)[C@@H](N(C)C)[C@@H]3[C@@H](O)[C@@H]21.O [DOXYCYCLINE]
[1]
  MIC: > 32 µg/mL
[4]
  MIC: > 32 µg/mL
[6]
  MIC: 32 µg/mL
[30]
  MIC: 8 µg/mL
[13]
  MIC: > 32 µg/mL
[14]
  MIC: > 32 µg/mL
[21]
  MIC: > 32 µg/mL
[22]
  MIC: 32 µg/mL

## C[C@@H](O)[C@H]1C(=O)N2C(C(=O)O)=C(SCCNC=N)C[C@H]12 [IMIPENEM ANHYDROUS]
[3]
  MIC: 16 µg/mL (≈ 53.4 µM)
[31]
  MIC: 16 µg/mL (≈ 53.4 µM)
[8]
  MIC: 16 µg/mL (≈ 53.4 µM)
[9]
  MIC: 32 µg/mL (≈ 107 µM)
[32]
  MIC: 8 µg/mL (≈ 26.7 µM)
[33]
  MIC: 32 µg/mL (≈ 107 µM)
[34]
  MIC: 32 µg/mL (≈ 107 µM)
[16]
  MIC: 16 µg/mL (≈ 53.4 µM)
[35]
  MIC: 32 µg/mL (≈ 107 µM)
[36]
  MIC: 16 µg/mL (≈ 53.4 µM)
[20]
  MIC: > 32 µg/mL
[37]
  MIC: 4 µg/mL (≈ 13.4 µM)

## C[C@@H](O)[C@H]1C(=O)N2C(C(=O)O)=C(S[C@@H]3CN[C@H](C(=O)N(C)C)C3)[C@H](C)[C@H]12 [MEROPENEM]
[1]
  MIC: > 32 µg/mL
[3]
  MIC: > 32 µg/mL
[31]
  MIC: 16 µg/mL (≈ 41.7 µM)
[4]
  MIC: 4 µg/mL (≈ 10.4 µM)
[6]
  MIC: 16 µg/mL (≈ 41.7 µM)
[8]
  MIC: 32 µg/mL (≈ 83.4 µM)
[9]
  MIC: 8 µg/mL (≈ 20.9 µM)
[30]
  MIC: 16 µg/mL (≈ 41.7 µM)
[32]
  MIC: 8 µg/mL (≈ 20.9 µM)
[33]
  MIC: 8 µg/mL (≈ 20.9 µM)
[13]
  MIC: 1 µg/mL (≈ 2.61 µM)
[14]
  MIC: > 32 µg/mL
[34]
  MIC: 16 µg/mL (≈ 41.7 µM)
[16]
  MIC: 16 µg/mL (≈ 41.7 µM)
[35]
  MIC: 16 µg/mL (≈ 41.7 µM)
[36]
  MIC: 16 µg/mL (≈ 41.7 µM)
[20]
  MIC: > 32 µg/mL
[21]
  MIC: 32 µg/mL (≈ 83.4 µM)
[22]
  MIC: 8 µg/mL (≈ 20.9 µM)
[37]
  MIC: 16 µg/mL (≈ 41.7 µM)

## COLISTIN
[1]
  MIC: 1 µg/mL
[38]
  Activity: Dose-dependent effect
[3]
  MIC: 1 µg/mL
[31]
  MIC: 1 µg/mL
[4]
  MIC: 2 µg/mL
[6]
  MIC: 1 µg/mL
[8]
  MIC: 1 µg/mL
[9]
  MIC: 1 µg/mL
[30]
  MIC: 1020 µg/mL
[32]
  MIC: 1 µg/mL
[33]
  MIC: 1 µg/mL
[13]
  MIC: 1 µg/mL
[14]
  MIC: 1 µg/mL
[34]
  MIC: 1 µg/mL
[16]
  MIC: 1 µg/mL
[35]
  MIC: 2 µg/mL
[36]
  MIC: 2 µg/mL
[20]
  MIC: 0.5 µg/mL
[21]
  MIC: 2 µg/mL
[22]
  MIC: 4 µg/mL
[37]
  MIC: 1 µg/mL
[24]
  MIC: 1 µg/mL

## GENTAMICIN
[1]
  MIC: > 32 µg/mL
[3]
  MIC: 4 µg/mL
[31]
  MIC: 8 µg/mL
[4]
  MIC: > 32 µg/mL
[6]
  MIC: > 32 µg/mL
[8]
  MIC: 8 µg/mL
[9]
  MIC: 4 µg/mL
[30]
  MIC: > 32 µg/mL
[32]
  MIC: 4 µg/mL
[33]
  MIC: 16 µg/mL
[13]
  MIC: > 0.5 µg/mL
[14]
  MIC: > 32 µg/mL
[34]
  MIC: 4 µg/mL
[16]
  MIC: 4 µg/mL
[35]
  MIC: 16 µg/mL
[36]
  MIC: 8 µg/mL
[20]
  MIC: > 32 µg/mL
[21]
  MIC: > 32 µg/mL
[22]
  MIC: 32 µg/mL
[37]
  MIC: 4 µg/mL
